# Assay results from article PMC8413904 (Pharmacology Research & Perspectives, 2021).
# Like-named read-outs stand apart in the source and are kept apart here.
# Assays:
# [1] = system: cultured rat brain cortical neurons; test: Dynamic calcium assay (Fluo‐8); assay type: cell-based
# Method: (§1) All animal experimental procedures and housing have been approved by the Institutional Animal Care and Use Committee (IACUC) protocol #18‐015 of Virginia Tech. Embryonic day 18 (E18) rat brain tissue samples were obtained from adult pregnant SD rats. Rat brain primary cortical, striatal, and cerebellar neurons were cultured on poly‐d‐lysine coated 96‐well plates for 14 days in vitro (DIV14) before using for the experiments. Primary rat neuron culture was performed as previously published.[44] Briefly, each well of a 96 well plate was loaded with 50 000 cells and grown in 200 µl neurobasal media supplemented with B27, glutamax, penicillin, streptomycin. One hundred microliters of media was replaced with fresh media once in 4 days. Eight to thirteen fetus were obtained from each pregnant rat. Brain tissue from these fetus were pooled to obtain the neurons. Cortical, striatal, and cerebellar neuron assays were carried out at different time points.
# Dynamic calcium assay was carried out, using Fluo‐8 no‐wash kit (abcam, ab112129), as per the manufacturer's instructions with minor modifications to fit with experimental necessities. On DIV14, all 200 μl of media was removed and replaced it with 100 μl of HBSS and 100 μl of Fluo‐8 dye loading solution. The plates were incubated at 37°C for 30 min and at room temperature for 30 min. […] Costar 96‐well clear bottom black side plates were read from the bottom, nine times, with 60 s intervals between each read. Temperature was set at 37°C and reading speed was 100 ms.
# [2] = target: T1, GluN1/2A (UniProt P35439+Q12879); parameters: method as in PMID 30553788; details: at −60 mV; read-out: Mg^2+ IC50; cited from earlier work
# [3] = system: cultured rat brain striatal neurons; test: Na^+ assay (CoroNa green‐AM); assay type: cell-based; details: 300 µM NMDA alone
# Method: as §1
# (§2) For Na^+ assay, DIV14 neurons were washed with HBSS and treated with freshly prepared CoroNa green‐AM dye (ThermoFisher, cat # C36676) and incubated for 45 min in 37°C. Plates were washed twice with HBSS before adding drug solutions dissolved in HBSS, and read at 492/516 nm (ex/em) using a plate reader. RFU values of background control and treatments were plotted to identify the effect of CNS4 on NMDA‐induced Na^+ flux in the neurons.
# [4] = system: cultured rat brain cerebellar neurons; test: Na^+ assay (CoroNa green‐AM); assay type: cell-based; details: 300 µM NMDA alone
# Method: as §1, §2
# [5] = system: cultured rat brain striatal neurons; test: Dynamic calcium assay (Fluo‐8); assay type: cell-based; details: 300 µM NMDA alone
# Method: as §1
# (§3) Dynamic calcium assay was carried out, using Fluo‐8 no‐wash kit (abcam, ab112129), as per the manufacturer's instructions with minor modifications to fit with experimental necessities. On DIV14, all 200 μl of media was removed and replaced it with 100 μl of HBSS and 100 μl of Fluo‐8 dye loading solution. The plates were incubated at 37°C for 30 min and at room temperature for 30 min. A volume of 100 µL of test chemicals (3× of desired final concentration) was added to the plates immediately before running the calcium flux assay and read the fluorescence intensity at 490/525 nm (ex/em) using Synergy microplate reader, BioTek, VT. Costar 96‐well clear bottom black side plates were read from the bottom, nine times, with 60 s intervals between each read. Temperature was set at 37°C and reading speed was 100 ms.
# [6] = system: cultured rat brain cerebellar neurons; test: Dynamic calcium assay (Fluo‐8); assay type: cell-based; details: 300 µM NMDA alone
# Method: as §1, §3
# [7] = target: GluN1/2D (UniProt O15399+P35439); test: TEVC electrophysiology dose–response in xenopus oocytes; assay type: cell-based; parameters: host or cells: Xenopus oocytes (cRNA injection)
# Source text: (§4) NMDAR constructs: cDNA encoding the NMDAR1a subunit (GluN1a) was obtained from Dr. Nakanishi. cDNA encoding the GluN2B (pci_sepGluN2B) was developed initially in the Malinow lab[36] and purchased from Addgene (cat# 23998). cDNA encoding the GluN2C and GluN2D were purchased from GenScript. Mutated GluN1, 2A and 2B cDNA constructs capable of assembling as GluN1/2A/2B triheteromeric (1/2AB) receptors[37] were obtained from Dr. Paoletti (Laboratoire de Neurobiologie, CNRS). […] Plasmids were linearized with NotI (GluN1a) or Avrll (GluN2B), or BstB1 (GluN2C and GluN2D) and transcribed in vitro with T7 (GluN1a, GluN1/2A, GluN2B, GluN2C, & GluN2D) RNA polymerase using the mMessage mMachine transcription kits (Invitrogen by Thermo Fisher Scientific).
# (§5) Stage IV frog oocytes were obtained from Xenopus‐I. NMDAR subunit cRNAs were suspended in nuclease‐free sterile water. GluN1A, GluN2B, GluN2C, GluN2D, and GluN1/2A/2B cRNAs were mixed in a ratio of 1:1–3. 50 nl of the final cRNA mixture was microinjected (40–70 ng total) into the oocyte cytoplasm. Oocytes were incubated in ND‐96 solution at 18^◦C prior to electrophysiological recordings (1–3 days).
# Electrophysiological responses were measured using a standard two‐microelectrode voltage‐clamp workstation [Warner Instruments (Hamden, Connecticut) model OC‐725C] designed to provide a fast clamp of large cells. The recording buffer contained 116 mM NaCl, 2 mM KCl, 0.3 mM BaCl2, and 5 mM HEPES, pH 7.4. Response magnitude was determined in xenopus oocytes expressing different NMDAR subunits (GluN1/2A, 1/2B, 1/2C, 1/2D, and 1/2A/2B) by the steady plateau response elicited by bath application of different agonist concentrations. […] Response amplitudes for functional NMDARs were generally between 0.1 and 2 μA. […] Dose–response relationships were fit to an appropriate curve‐fitting equation using GraphPad Prism‐7. Nonlinear regression was used to calculate EC50 and/or percentage maximal response. […] Statistical significance was determined at the overall alpha level .05, using appropriate statistical methods as described in each figure captions.
# [8] = system: cultured rat brain cortical neurons; test: Na^+ assay (CoroNa green‐AM); assay type: cell-based
# Method: as §1
# as §2, with “Plates were washed twice with HBSS before adding drug solutions dissolved in HBSS, and read at 492/516 nm (ex/em) using a plate reader.” left out
# [9] = target: T1, GluN1/2A; test: TEVC electrophysiology dose–response in xenopus oocytes; assay type: cell-based
# Source text: as §4, §5
# Electrophysiological responses were measured using a standard two‐microelectrode voltage‐clamp workstation [Warner Instruments (Hamden, Connecticut) model OC‐725C] designed to provide a fast clamp of large cells. The recording buffer contained 116 mM NaCl, 2 mM KCl, 0.3 mM BaCl2, and 5 mM HEPES, pH 7.4. Response magnitude was determined in xenopus oocytes expressing different NMDAR subunits (GluN1/2A, 1/2B, 1/2C, 1/2D, and 1/2A/2B) by the steady plateau response elicited by bath application of different agonist concentrations. […] Response amplitudes for functional NMDARs were generally between 0.1 and 2 μA. […] Dose–response relationships were fit to an appropriate curve‐fitting equation using GraphPad Prism‐7. Nonlinear regression was used to calculate EC50 and/or percentage maximal response. Curve fittings were done using the following equations as performed in the previous studies[34], [39]: Y = 100/(1 + 10^(LogEC50‐X)) or Y = Bottom + (Top − Bottom)/(1+10^(LogEC50‐X)). Statistical significance was determined at the overall alpha level .05, using appropriate statistical methods as described in each figure captions.
# T1 sequence (Q12879 23-1464, other chains not shown): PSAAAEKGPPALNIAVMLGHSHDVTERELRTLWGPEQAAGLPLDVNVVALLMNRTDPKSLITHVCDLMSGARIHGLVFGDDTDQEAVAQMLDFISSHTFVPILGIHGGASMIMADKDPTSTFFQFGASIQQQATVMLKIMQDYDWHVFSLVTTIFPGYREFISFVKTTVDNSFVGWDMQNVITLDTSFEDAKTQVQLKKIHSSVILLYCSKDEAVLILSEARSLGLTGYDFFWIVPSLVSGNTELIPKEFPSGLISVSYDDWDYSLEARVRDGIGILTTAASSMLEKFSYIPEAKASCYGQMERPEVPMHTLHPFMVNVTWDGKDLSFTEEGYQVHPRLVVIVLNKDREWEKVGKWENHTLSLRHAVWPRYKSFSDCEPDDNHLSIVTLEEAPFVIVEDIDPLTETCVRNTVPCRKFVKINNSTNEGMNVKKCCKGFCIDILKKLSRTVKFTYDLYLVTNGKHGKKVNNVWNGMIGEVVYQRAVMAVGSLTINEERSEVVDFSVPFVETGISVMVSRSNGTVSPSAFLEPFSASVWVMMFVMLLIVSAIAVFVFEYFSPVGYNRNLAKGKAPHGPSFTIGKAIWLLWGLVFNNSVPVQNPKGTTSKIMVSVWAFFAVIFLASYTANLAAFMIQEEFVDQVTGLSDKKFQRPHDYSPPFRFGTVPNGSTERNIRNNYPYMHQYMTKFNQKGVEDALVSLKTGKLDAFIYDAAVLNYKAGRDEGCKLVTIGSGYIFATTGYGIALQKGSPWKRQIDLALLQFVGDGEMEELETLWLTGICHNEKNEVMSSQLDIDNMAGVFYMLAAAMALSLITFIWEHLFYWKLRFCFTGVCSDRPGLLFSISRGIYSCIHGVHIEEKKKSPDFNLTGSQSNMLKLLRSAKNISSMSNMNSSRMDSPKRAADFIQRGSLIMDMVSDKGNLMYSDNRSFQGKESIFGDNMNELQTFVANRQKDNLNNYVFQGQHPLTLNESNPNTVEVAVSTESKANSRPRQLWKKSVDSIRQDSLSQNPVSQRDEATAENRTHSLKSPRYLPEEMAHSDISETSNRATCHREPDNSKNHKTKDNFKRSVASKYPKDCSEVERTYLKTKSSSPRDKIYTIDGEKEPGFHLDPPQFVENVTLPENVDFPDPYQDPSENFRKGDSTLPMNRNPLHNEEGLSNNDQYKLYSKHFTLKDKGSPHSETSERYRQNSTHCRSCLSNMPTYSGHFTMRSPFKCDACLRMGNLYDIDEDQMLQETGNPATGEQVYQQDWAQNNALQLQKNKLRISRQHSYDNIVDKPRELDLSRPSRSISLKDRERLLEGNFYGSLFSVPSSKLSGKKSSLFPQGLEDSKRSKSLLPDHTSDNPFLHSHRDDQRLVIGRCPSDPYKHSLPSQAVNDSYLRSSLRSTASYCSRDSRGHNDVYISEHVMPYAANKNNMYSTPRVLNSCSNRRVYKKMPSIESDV
# Chain of GluN1/2D (O15399 28-1336, other chains not shown): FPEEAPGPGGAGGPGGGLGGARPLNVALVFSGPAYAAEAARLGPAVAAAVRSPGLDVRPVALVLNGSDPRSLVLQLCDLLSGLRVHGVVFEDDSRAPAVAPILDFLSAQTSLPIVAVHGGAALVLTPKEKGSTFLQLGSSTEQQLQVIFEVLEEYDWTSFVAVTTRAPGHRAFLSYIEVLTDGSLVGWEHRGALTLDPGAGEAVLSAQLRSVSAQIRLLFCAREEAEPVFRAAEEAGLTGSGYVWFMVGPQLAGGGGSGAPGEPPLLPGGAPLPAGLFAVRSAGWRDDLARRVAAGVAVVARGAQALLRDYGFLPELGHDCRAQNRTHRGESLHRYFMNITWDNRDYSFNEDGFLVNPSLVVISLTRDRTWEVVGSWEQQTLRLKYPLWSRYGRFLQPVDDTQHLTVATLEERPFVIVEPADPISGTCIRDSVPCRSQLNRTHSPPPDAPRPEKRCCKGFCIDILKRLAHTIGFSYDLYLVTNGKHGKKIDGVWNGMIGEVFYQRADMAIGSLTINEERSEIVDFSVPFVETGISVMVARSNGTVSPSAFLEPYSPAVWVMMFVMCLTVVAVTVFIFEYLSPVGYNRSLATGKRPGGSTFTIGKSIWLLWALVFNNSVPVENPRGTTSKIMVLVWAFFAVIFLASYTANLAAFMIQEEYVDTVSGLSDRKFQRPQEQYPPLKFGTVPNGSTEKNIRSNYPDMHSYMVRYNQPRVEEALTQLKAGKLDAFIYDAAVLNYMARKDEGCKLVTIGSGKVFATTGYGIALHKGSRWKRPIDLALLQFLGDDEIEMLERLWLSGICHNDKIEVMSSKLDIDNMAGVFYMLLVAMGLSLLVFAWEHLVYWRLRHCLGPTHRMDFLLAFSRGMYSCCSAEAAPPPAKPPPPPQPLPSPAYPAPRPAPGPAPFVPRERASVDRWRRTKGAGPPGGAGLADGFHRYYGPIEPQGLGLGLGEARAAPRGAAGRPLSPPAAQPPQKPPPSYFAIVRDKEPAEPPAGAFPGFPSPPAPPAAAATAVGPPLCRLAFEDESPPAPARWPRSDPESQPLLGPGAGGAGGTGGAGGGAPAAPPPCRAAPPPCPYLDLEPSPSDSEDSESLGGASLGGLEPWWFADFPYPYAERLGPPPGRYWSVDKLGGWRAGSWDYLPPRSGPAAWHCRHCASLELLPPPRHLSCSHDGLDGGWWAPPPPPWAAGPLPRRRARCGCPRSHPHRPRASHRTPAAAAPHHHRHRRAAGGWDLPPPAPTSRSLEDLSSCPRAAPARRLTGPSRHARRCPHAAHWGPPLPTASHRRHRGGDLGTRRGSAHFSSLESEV
compound,measurement,setting,value
"NCCCC(=O)O [GABA, reference compound]","Ca^2+ signal, mean rfu","[1]; 100 µM GABA, baseline 7673, p < .0001",4196 rfu
"C[N+](C)(C)CCCCCC[N+](C)(C)C [Hexamethonium, reference compound]","Ca^2+ signal, mean rfu","[1]; 50 µM hexamethonium + 100 µM acetylcholine, p > .9999 vs acetylcholine (6222)",6228 rfu
[Cl-].[Cl-].[Mg+2] [MgCl2],IC50,[2],40 µM
"CN[C@H](CC(=O)O)C(=O)O [NMDA, N‐methyl D‐aspartate, reference compound]",Na^+ signal compared to the background control,[3],did not significantly increase
same,Na^+ signal compared to the background control,[4],did not significantly increase
same,"Ca^2+ signal, mean rfu",[1]; 300 µM NMDA alone,26711 rfu
same,"Ca^2+ signal, mean rfu",[5],20964 rfu
same,"Ca^2+ signal, rfu",[6],12810 rfu
"CC(=O)OCC[N+](C)(C)C [acetylcholine, reference compound]","Ca^2+ signal, mean rfu","[1]; 100 µM acetylcholine, baseline 7673, p < .0001",6222 rfu
"N[C@@H](CCC(=O)O)C(=O)O [glutamate, L‐glutamic acid, reference compound]","Ca^2+ signal, mean rfu","[1]; 100 µM glutamate, Figure 8A, baseline 7673",21956 rfu
same,EC50,[7],0.34 ± 0.01 µM
same,"Na^+ signal, mean rfu","[8]; 100 µM glutamate, Figure 8B, baseline vs glutamate 514004 vs. 505677, p = .4055",505677 rfu
"CC(C(O)c1ccc(O)cc1)N1CCC(Cc2ccccc2)CC1 (stereo not shown) [ifenprodil, reference compound]",IC50,[9],202 ± 25.1 µM
"CC12CC3CC(C)(C1)CC(N)(C3)C2 [memantine, reference compound]",effect on NMDA‐induced Ca^2+ signal,"[1]; 50 µM memantine added to NMDA, Figure 6",reversed the NMDA‐induced Ca^2+ signal back to the control level
same,"Na^+ signal, mean rfu","[8]; NMDA plus 50 µM memantine, p < .01 vs NMDA alone (400251)",412868 rfu
picrotoxin [reference compound],effect on GABA mediated reduction of baseline Ca^2+ response,[1]; 50 µM picrotoxin + 100 µM GABA,unaltered
